Test results taken from PMC4548243, “Nuclear Localization of the DNA Repair Scaffold XRCC1: Uncovering the Functional Role of a Bipartite NLS” (Scientific Reports, 2015).
Residues, ends and D or L forms follow the SMILES beside them. *: point of attachment. FITC = O=C1OC2(c3ccc(O)cc3Oc3cc(O)ccc32)c2ccc(NC(=S)*)cc21

Target: T1, Impα(70–529)(W184R/W231R) (Mus musculus, UniProt P52293, W184R/W231R)
T1 construct: His tag; made in house; host or cells: E. coli BL21(DE3), pET30
Test: Fluorescence polarization titration of FITC-labeled XRCC1 NLS peptides with major-site mutant Impα(70–529)(W184R/W231R)
Type: binding, murine
Settings: relative to wild-type Impα(70–529)
Protocol: A His-tagged murine Importin α protein with the Importin β binding domain (IBB) deleted, which is identical to Impα(70–529) studied by Fontes et al.[30], was expressed in E. coli. […] The major binding pocket double mutant W184R/W231R was created using a Quikchange site-directed mutagenesis kit (Agilent).
Protein concentrations were determined by the Edelhoch procedure[59].
Apparent peptide dissociation constants were determined based on fluorescence polarization measurements using FITC-labeled peptides. Impα(70–529) was exchanged into FP buffer (20 mM Tris, pH 7.7, 125 mM NaCl, 1 mM EDTA, 2 mM tris(2-carboxyethyl)phosphine, 5% sucrose, 10 mM NaN3). […] 50 μL volumes of the binding reactions were pipetted into wells of a 96-well black flat bottomed plate and fluorescence polarization was read at room temperature with the POLARstar Omega microplate reader (BMG Labtech) using excitation at 485 nm and emission at 520 nm. […] The fluorescence polarization values generated by the experiments are arbitrary, so for easy comparisons among samples, the data were normalized to a 0–100 scale after curve-fitting. […]
Where Ycalc represents the fluorescence polarization value that is generated by the model. […]
The FITC tags were selected in an attempt to minimize possible non-specific interactions of the fluorescein with the Impα(70–529). […] Concentrations of unlabeled peptides were determined by UV absorbance[62].

| Compound | binding affinity to Impα(70–529)(W184R/W231R), in words |
| --- | --- |
| CC(C)C[C@H](NC(=O)[C@H](CCCCN)NC(=O)[C@H](CCCNC(=N)N)NC(=O)[C@H](CCCCN)NC(=O)CNC(=O)CNC(=S)Nc1ccc2c(c1)C(=O)OC21c2ccc(O)cc2Oc2cc(O)ccc21)C(=O)O [Peptide M1] ({FITC}-GGKRKL-OH; C-terminus assumed) | essentially unaffected |
| CC(C)C[C@H](NC(=O)[C@H](CCCCN)NC(=O)[C@@H]1CCCN1C(=O)[C@H](CCCNC(=N)N)NC(=O)[C@H](CCCCN)NC(=O)[C@@H]1CCCN1C(=O)[C@@H](NC(=O)[C@@H](N)CO)C(C)C)C(=O)N1CCC[C@H]1C(=O)NCC(=O)N[C@@H](CCCCNC(=S)Nc1ccc2c(c1)C(=O)OC21c2ccc(O)cc2Oc2cc(O)ccc21)C(=O)O [Peptide M2] (H-SVPKRPKLPGK(FITC)-OH; N-terminus and C-terminus assumed) | interacts only weakly |
